Holding throughout (format): functional
One assay relates to Human alphaherpesvirus 2. The assay is described as follows: Antiviral activity against HSV-2(G) strain in primary rabbit kidney (PRK) / embryonic skin-muscle (E6SM) fibroblast culture lines. To be noted: Human alphaherpesvirus 2, Muscle tissue.
Assay [1] relates to Coxsackievirus B4. The assay is described as follows: Antiviral activity against coxsackie B4 in Vero cell culture lines. To be noted: Enterovirus B.
The subject of assay [2] is Coxsackievirus B4. Put plainly: Antiviral activity against coxsackie B4 virus in HeLa cell culture lines. The following applies: Enterovirus B.
In the next assay the test system is Semliki Forest virus. The assay is described as follows: Antiviral activity against semliki forest virus (SFV) in Vero cell culture lines.
In assay [3] the test system is Vesicular stomatitis virus. Put plainly: Antiviral activity against vesicular stomatitis virus (VSV) in HeLa cell culture lines,.
Assay [4] has as its system Vesicular stomatitis virus. The assay is described as follows: Antiviral activity against vesicular stomatitis virus (VSV) in primary rabbit kidney (PRK) / embryonic skin-muscle (E6SM) fibroblast culture lines. To be noted: Muscle tissue.
The test system of a further assay is Vaccinia virus. Put plainly: Antiviral activity against vaccinia virus (VV) in primary rabbit kidney (PRK) / embryonic skin-muscle (E6SM) fibroblast culture lines. The following applies: Orthopoxvirus vaccinia, Muscle tissue.
In the next assay the test system is Human alphaherpesvirus 1. Put plainly: Antiviral activity against HSV-1(KOS) strain in primary rabbit kidney (PRK) / embryonic skin-muscle (E6SM) fibroblast culture lines. The following applies: Human alphaherpesvirus 1, Muscle tissue.
In the next assay the test system is Poliovirus 1. Put plainly: Antiviral activity against polio virus type 1 in HeLa cell culture lines. The following applies: Enterovirus C.
The next assay deals with Human respirovirus 3. Put plainly: Antiviral activity against parainfluenza virus type 3 in Vero cell culture lines.
For a further assay, the system named is Sindbis virus. The assay is described as follows: Antiviral activity against sindbis virus in Vero cell culture lines.
Assay [5] concerns Mammalian orthoreovirus 1. Put plainly: Antiviral activity against reovirus type 1 in Vero cell culture lines.

Converted amounts (≈) assume the structure as drawn.

Turning to `Nc1ncnc2c1CCN2[C@@H]1O[C@H](CO)C[C@H]1O`, the MIC in the assay with Human alphaherpesvirus 2 is 7 µg/mL (≈ 27.7 µM); against Coxsackievirus B4 [1] it was 7 µg/mL (≈ 27.7 µM); against Coxsackievirus B4 [2] it was 7 µg/mL (≈ 27.7 µM); in the assay with Semliki Forest virus, greater than 40 µg/mL; in [3] it was greater than 10 µg/mL; in assay [4], greater than 10 µg/mL. For the same molecule, the MIC is 7 µg/mL (≈ 27.7 µM) with Vaccinia virus; greater than 10 µg/mL with Human alphaherpesvirus 1; 7 µg/mL (≈ 27.7 µM) in the assay on Poliovirus 1; 7 µg/mL (≈ 27.7 µM) in the assay with Human respirovirus 3; 30 µg/mL (≈ 119 µM) with Sindbis virus; 4 µg/mL (≈ 15.9 µM) in assay [5].

As for `Nc1ncnc2c1CCN2[C@@H]1O[C@H](CSCCC(N)C(=O)O)C[C@H]1O` (some centres undefined), the MIC with Human alphaherpesvirus 2 is greater than 100 µg/mL; against Coxsackievirus B4 [1], greater than 200 µg/mL; with Coxsackievirus B4 [2], greater than 200 µg/mL; against Semliki Forest virus, greater than 200 µg/mL; in assay [3], 20 µg/mL (≈ 54.1 µM); in [4], 20 µg/mL (≈ 54.1 µM). Moreover, the MIC is 2 µg/mL (≈ 5.41 µM) against Vaccinia virus; greater than 100 µg/mL with Human alphaherpesvirus 1; greater than 200 µg/mL in the assay with Poliovirus 1; 100 µg/mL (≈ 271 µM) against Human respirovirus 3; greater than 200 µg/mL in the assay with Sindbis virus; 70 µg/mL (≈ 189 µM) in assay [5].

For `Nc1nccc2c1ncn2[C@@H]1O[C@H](CO)[C@@H](O)[C@H]1O`, the MIC against Human alphaherpesvirus 2 is 100 µg/mL (≈ 376 µM); against Coxsackievirus B4 [1] it was greater than 200 µg/mL; against Coxsackievirus B4 [2], greater than 400 µg/mL; against Semliki Forest virus, greater than 400 µg/mL; in assay [3], greater than 2 µg/mL; in assay [4], 0.7 µg/mL (≈ 2.63 µM). In addition, the MIC against Vaccinia virus was 1 µg/mL (≈ 3.76 µM); against Human alphaherpesvirus 1 it was greater than 400 µg/mL; with Poliovirus 1, greater than 400 µg/mL; with Human respirovirus 3 it was 0.4 µg/mL (≈ 1.5 µM); in the assay with Sindbis virus it was 70 µg/mL (≈ 263 µM); in [5] it was 0.4 µg/mL (≈ 1.5 µM).

Take `CCOC(=O)C(N)CCSC[C@H]1OC(n2ccc3c(N)ncnc32)[C@H](O)[C@@H]1O` (some centres undefined): the MIC against Human alphaherpesvirus 2 is 20 µg/mL (≈ 48.6 µM); against Coxsackievirus B4 [1], 20 µg/mL (≈ 48.6 µM); in the assay on Coxsackievirus B4 [2], 70 µg/mL (≈ 170 µM); against Semliki Forest virus, greater than 100 µg/mL; in assay [3], 20 µg/mL (≈ 48.6 µM); in [4], 7 µg/mL (≈ 17 µM). The MIC in the assay with Vaccinia virus was 7 µg/mL (≈ 17 µM); against Human alphaherpesvirus 1 it was 20 µg/mL (≈ 48.6 µM); in the assay on Poliovirus 1, 70 µg/mL (≈ 170 µM); against Human respirovirus 3, greater than 100 µg/mL; against Sindbis virus, greater than 100 µg/mL; in assay [5] it was greater than 70 µg/mL.

Take `CCOC(=O)C(CCSC[C@H]1OC(n2ccc3c(N)ncnc32)[C@H](O)[C@@H]1O)NC(=O)COC` (some centres undefined): the MIC was greater than 100 µg/mL against Human alphaherpesvirus 2; greater than 150 µg/mL with Coxsackievirus B4 [1]; 150 µg/mL (≈ 310 µM) in the assay with Coxsackievirus B4 [2]; greater than 400 µg/mL with Semliki Forest virus; greater than 70 µg/mL in assay [3]; 70 µg/mL (≈ 145 µM) in [4]. The MIC in the assay on Vaccinia virus is 2 µg/mL (≈ 4.14 µM); against Human alphaherpesvirus 1, greater than 100 µg/mL; against Poliovirus 1, greater than 200 µg/mL; against Human respirovirus 3, greater than 400 µg/mL; against Sindbis virus it was 300 µg/mL (≈ 620 µM); in assay [5], 300 µg/mL (≈ 620 µM).

As to `CCCOC(=O)C(CCSC[C@H]1OC(n2ccc3c(N)ncnc32)[C@H](O)[C@@H]1O)NC(=O)C(F)(F)F` (some centres undefined), the MIC in the assay with Human alphaherpesvirus 2 was greater than 10 µg/mL; against Coxsackievirus B4 [1], greater than 150 µg/mL; against Coxsackievirus B4 [2], greater than 100 µg/mL; in the assay with Semliki Forest virus it was greater than 200 µg/mL; in [3], greater than 20 µg/mL; in assay [4] it was greater than 10 µg/mL. Also, the MIC in the assay on Vaccinia virus was 0.7 µg/mL (≈ 1.34 µM); against Human alphaherpesvirus 1, greater than 10 µg/mL; with Poliovirus 1, greater than 100 µg/mL; in the assay on Human respirovirus 3 it was 70 µg/mL (≈ 134 µM); in the assay with Sindbis virus, 70 µg/mL (≈ 134 µM); in [5] it was greater than 100 µg/mL.

As to `Nc1ncnc2c1ncn2C[C@H](O)CO` [(S)-DHPA], the MIC in the assay with Human alphaherpesvirus 2 was greater than 400 µg/mL; with Coxsackievirus B4 [1], greater than 70 µg/mL; against Coxsackievirus B4 [2], greater than 400 µg/mL; against Semliki Forest virus it was greater than 400 µg/mL; in assay [3], greater than 70 µg/mL; in assay [4], 20 µg/mL (≈ 95.6 µM). For the same molecule, the MIC is 40 µg/mL (≈ 191 µM) against Vaccinia virus; greater than 400 µg/mL in the assay with Human alphaherpesvirus 1; greater than 400 µg/mL with Poliovirus 1; 10 µg/mL (≈ 47.8 µM) with Human respirovirus 3; greater than 400 µg/mL with Sindbis virus; 7 µg/mL (≈ 33.5 µM) in [5].
